Columns and labels:
adult male mice (CD-1) [1] = format: in vivo
Description: (§1) For this purpose, adult male mice (CD-1) were used. Two experiments were performed to test polymyxin B effectiveness: polymyxin B was administered concomitantly with α-amanitin and four hours after administration of α-amanitin. Concomitant therapy consisted of 0.33 mg/kg of α-amanitin followed by 2.5 mg/kg of polymyxin B (one administration). In the second experiment, three 2.5 mg/kg administrations of polymyxin B were used in different time-points [4, 8 and 12 h, intraperitoneal (i.p.) administration] after one α-amanitin (dose 0.33 mg/kg i.p.) exposure, as to mimic the clinical scenario of late intoxication diagnosis; human intoxication is often only found hours later when symptoms become clinically relevant. […] Moreover 50% of animal exposed to polymyxin B 4, 8 and 12 h after α-amanitin survived […]. In order to validate and unveil some mechanisms involved, an acute study with the same doses and scheme was performed, with animals being sacrificed 24 h after α-amanitin administration.
FIG. 1. Survival curves after concomitant i.p. administration of 0.33 mg/kg of α-amanitin and polymyxin B (Ama+Pol— 2.5 mg/kg) and 3 administrations of polymyxin B (Ama+Pol— 3×2.5 mg/kg) at different time-points (4, 8 and 12 h, i.p. administration) after one α-amanitin (dose 0.33 mg/kg i.p.). Results are expressed in percent survival. Control tests were performed (Control), consisting of a saline-control treatment. A polymyxin treatment (Pol) was additionally performed. A treatment with α-amanitin (Ama) as also made.
For this purpose, adult male mice (CD-1) were used. Two experiments were performed to test polymyxin B effectiveness: polymyxin B was administered concomitantly with α-amanitin and four hours after administration of α-amanitin. Concomitant therapy consisted of 0.33 mg/kg of α-amanitin followed by 2.5 mg/kg of polymyxin B (one administration). In the second experiment, three 2.5 mg/kg administrations of polymyxin B were used in different time-points (4, 8 and 12 h, i.p. administration) after one α-amanitin exposure (0.33 mg/kg i.p dose), as to mimic the clinical scenario of late intoxication diagnosis; human intoxication is often only found hours later when symptoms become clinically relevant. […] Moreover, 50% of animals exposed to polymyxin B 4, 8 and 12 h after α-amanitin survived (FIG. 1). In order to validate and unveil some mechanisms involved, an acute study with the same doses and scheme was performed with polymyxin B 4, 8 and 12 h after α-amanitin administration. Animals were sacrificed 24 h after α-amanitin administration. […] The renal corpuscles appearance is heterogeneous, with a wide capsular space, and thickened external Bowman capsule. […]

adult male mice (CD-1) [2] = experiment: Acute study, animals sacrificed 24 h after α-amanitin: plasma aminotransferases, liver and kidney histology; format: in vivo
Description: as §1
FIG. 2. Plasma levels of Aspartate aminotransferase (AST) and alanine aminotransferase (ALT) in control, polymyxin B (3×2.5 mg/kg) (Pol), α-amanitin (Ama) and α-amanitin+polymyxin B (3×2.5 mg/kg) (Ama+Pol) groups. Results are presented as means±standard deviation (SD), and were obtained from 4-5 animals from each treatment. Statistical comparisons were made using Kruskal-Wallis ANOVA on Ranks followed by the Dunn's post hoc test (*p<0.05, Ama vs. control; #p<0.05, Ama vs. Ama+Pol).
FIG. 3. Liver histopathology by light microscopy. (A) Light micrograph (40×) from α-amanitin treated-group. The presence of cellular oedema (1), cytoplasmic vacuolization (2), interstitial inflammatory cell infiltration (3), as well as some necrotic zones can be seen (4). (B) Light micrograph (40×) from α-amanitin+polymixin B (3×2.5 mg/kg) group. […] Increase number interstitial inflammatory cell was still observed.
FIG. 4. Kidney histopathology by light microscopy (A) Light micrograph (10×) from α-amanitin-treated group. The presence of cytoplasmatic vacuolization (5), renal corpuscles with a wide capsular space, and thickened external Bowman capsule (6), as well as some necrotic zones can be seen (7). The presence large amounts of fibrin-related material cause enlargement and obstruction of distal tubules (8). (B) Light micrograph (10×) from α-amanitin+polymixin B (3×2.5 mg/kg) group.
For this purpose, adult male mice (CD-1) were used. Two experiments were performed to test polymyxin B effectiveness: polymyxin B was administered concomitantly with α-amanitin and four hours after administration of α-amanitin. Concomitant therapy consisted of 0.33 mg/kg of α-amanitin followed by 2.5 mg/kg of polymyxin B (one administration). In the second experiment, three 2.5 mg/kg administrations of polymyxin B were used in different time-points (4, 8 and 12 h, i.p. administration) after one α-amanitin exposure (0.33 mg/kg i.p dose), as to mimic the clinical scenario of late intoxication diagnosis; human intoxication is often only found hours later when symptoms become clinically relevant. […] Moreover, 50% of animals exposed to polymyxin B 4, 8 and 12 h after α-amanitin survived (FIG. 1). In order to validate and unveil some mechanisms involved, an acute study with the same doses and scheme was performed with polymyxin B 4, 8 and 12 h after α-amanitin administration. Animals were sacrificed 24 h after α-amanitin administration. […] The renal corpuscles appearance is heterogeneous, with a wide capsular space, and thickened external Bowman capsule. […] Marked atrophy and degeneration of distal tubules cells was also observed, and large amounts of fibrin-related material caused enlargement and obstruction of these tubules.

[3] = 24 h after α-amanitin 0.33 mg/kg i.p., polymyxin B 3×2.5 mg/kg at 4, 8 and 12 h
[4] = 24 h after α-amanitin 0.33 mg/kg i.p., polymyxin B 3×2.5 mg/kg at 4, 8 and 12 h, listed as polymixin B

| Compound | day until which all animals died (adult male mice (CD-1) [1]; single dose of α-amanitin 0.33 mg/kg i.p., no antidote) | signs of injury or discomfort (adult male mice (CD-1) [1]; concomitant polymyxin B 2.5 mg/kg with α-amanitin 0.33 mg/kg, up to day 30) | animals that survived (adult male mice (CD-1) [1]; polymyxin B 3×2.5 mg/kg i.p. at 4, 8 and 12 h after α-amanitin 0.33 mg/kg i.p.) | animals that survived until the 30th day (adult male mice (CD-1) [1]; α-amanitin 0.33 mg/kg i.p. followed by polymyxin B 2.5 mg/kg, one concomitant administration) | kidney histology (light microscopy) (adult male mice (CD-1) [2]; [3]) | liver histology (light microscopy) (adult male mice (CD-1) [2]; [3]) | plasma aminotransferases (AST, ALT) (adult male mice (CD-1) [2]; [3]) | kidney histology (light microscopy) (adult male mice (CD-1) [2]; [4]) | liver histology (light microscopy) (adult male mice (CD-1) [2]; [4]) | hepatic and renal damage (histological and plasma data) (adult male mice (CD-1) [2]; 24 h after α-amanitin administration, same doses and scheme) |
| --- | --- | --- | --- | --- | --- | --- | --- | --- | --- | --- |
| CC[C@H](C)[C@@H]1NC(=O)CNC(=O)[C@@H]2Cc3c([nH]c4cc(O)ccc34)[S@+]([O-])C[C@H](NC(=O)CNC1=O)C(=O)N[C@@H](CC(N)=O)C(=O)N1C[C@H](O)C[C@H]1C(=O)N[C@@H]([C@@H](C)[C@@H](O)CO)C(=O)N2 [α-amanitin] | ≤ 5 days | – | – | – | – | – | – | – | – | – |
| polymyxin B | – | without major signs of injury or discomfort | 50% | 100% | protected against the occurrence of the above referred alterations, particularly the necrosis and the obstruction of distal tubules | significant reversion against α-amanitin-induced necrotic changes as well as the induced oedema and cytoplasmic vacuolization | totally reverted | oedema, cytoplasmatic vacuolization and necrosis, were significantly attenuated | oedema, cytoplasmatic vacuolization and necrosis, were significantly attenuated | protected against hepatic and renal damage caused by α-amanitin |
